Experimental data published in ChEMBL document CHEMBL5390303, “Discovery of Potent and Oral Bioavailable MAT2A Inhibitors for the Treatment of MTAP-Deleted Tumors” (ACS Med Chem Lett, 2023).

Tests used:
HCT-116 [1] = assay: Antitumor activity against MTAP-knockout human HCT-116 cells xenografted in Nu/Nu mouse model assessed as inhibition of tumor growth at 50 mg/kg, po qd measured after 21 days relative to control; type: functional; details: HCT-116, 504 h, time 21 day, read-out: TGI
[2] = target: S-adenosylmethionine synthase isoform type-2 (Homo sapiens, UniProt P31153); assay: Inhibition of MAT2A (unknown origin) using L-methionine as substrate preincubated for 30 mins followed by substrate addition measured after 60 mins by colorimetric assay
Chain of S-adenosylmethionine synthase isoform type-2 (P31153 whole entry, canonical isoform): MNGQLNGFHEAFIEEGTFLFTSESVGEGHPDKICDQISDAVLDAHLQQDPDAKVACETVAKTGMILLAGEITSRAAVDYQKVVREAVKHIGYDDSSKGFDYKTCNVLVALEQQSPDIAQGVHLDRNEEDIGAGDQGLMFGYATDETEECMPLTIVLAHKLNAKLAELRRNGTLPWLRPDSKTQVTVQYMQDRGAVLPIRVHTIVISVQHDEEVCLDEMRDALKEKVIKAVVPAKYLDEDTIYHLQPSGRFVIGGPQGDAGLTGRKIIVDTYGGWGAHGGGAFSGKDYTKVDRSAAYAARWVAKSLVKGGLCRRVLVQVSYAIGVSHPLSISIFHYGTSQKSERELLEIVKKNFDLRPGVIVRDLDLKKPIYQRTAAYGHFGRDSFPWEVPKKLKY

[3] = Tmax in ICR mouse plasma at 10 mg/kg, IG measured after 24 hrs by LC-MS/MS analysis; type: ADME, organism-based; details: po
[4] = Plasma protein binding in rat assessed as unbound fraction at 1 uM incubated for 6 hrs by LC-MS/MS based rapid equlibrium dialysis method; type: ADME, cell-free
Cytochrome P450 2C9 = Cytochrome P450 2C9 (Homo sapiens, UniProt P11712); assay: Inhibition of human liver microsomes CYP2C9 using Diclofenac as substrate incubated for 5 mins with compound followed by substrate and NADPH addition measured after 10 mins by LC-MS/MS analysis; type: ADME, Microsome
Chain of Cytochrome P450 2C9 (P11712 whole entry): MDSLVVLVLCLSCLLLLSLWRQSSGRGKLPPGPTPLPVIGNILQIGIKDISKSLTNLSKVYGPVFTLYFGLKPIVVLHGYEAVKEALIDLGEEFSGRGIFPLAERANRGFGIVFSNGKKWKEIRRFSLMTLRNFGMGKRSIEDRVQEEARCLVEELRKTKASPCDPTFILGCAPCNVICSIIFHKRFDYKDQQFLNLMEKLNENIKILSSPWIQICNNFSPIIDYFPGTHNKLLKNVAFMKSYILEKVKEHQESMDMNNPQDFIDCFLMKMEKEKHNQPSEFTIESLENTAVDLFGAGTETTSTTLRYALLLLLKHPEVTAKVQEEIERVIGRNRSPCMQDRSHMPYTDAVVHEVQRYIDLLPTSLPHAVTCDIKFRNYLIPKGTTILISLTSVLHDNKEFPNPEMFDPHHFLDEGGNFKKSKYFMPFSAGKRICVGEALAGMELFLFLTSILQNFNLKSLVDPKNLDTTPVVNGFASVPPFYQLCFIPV

[5] = Metabolic stability in human liver microsomes assessed as intrinsic clearance; type: ADME, Microsome; details: read-out: CLH
[6] = Cmax in male Sprague-Dawley rat plasma at 10 mg/kg, po incubated for 24 hrs by LC-MS/MS analysis; type: ADME, organism-based; set-up: time 24 hrs, dose 10 mg/kg, route po
[7] = Toxicity in Nu/Nu mouse xenografted with MTAP-knockout human HCT-116 cells assessed as maximum body weight loss at 10 to 20 mg/kg, po qd measured after 21 days; type: organism-based; details: in vivo, 504 h, dose 10-20 mg/kg, time 21 day
HCT-116 [8] = assay: Antiproliferative activity against MTAP knockout human HCT-116 assessed as inhibition of cell proliferation incubated for 6 days by alamar blue reagent based analysis; type: functional; details: HCT-116, 144 h
[9] = Half life in ICR mouse plasma at 10 mg/kg, IG measured after 24 hrs by LC-MS/MS analysis; type: ADME, organism-based; details: po
[10] = Cmax in ICR mouse plasma at 10 mg/kg, IG measured after 24 hrs by LC-MS/MS analysis; type: ADME, organism-based; set-up: dose 10 mg/kg, time 24 hrs, route ig; details: po
[11] = AUC(0 to last) in male Sprague-Dawley rat at 10 mg/kg, po incubated for 24 hrs by LC-MS/MS analysis; type: ADME, organism-based; set-up: dose 10 mg/kg, time 24 hrs, route po; details: in vivo
Cytochrome P450 2C19 = Cytochrome P450 2C19 (Homo sapiens, UniProt P33261); assay: Inhibition of human liver microsomes CYP2C19 incubated for 5 mins with compound followed by substrate and NADPH addition measured after 10 mins by LC-MS/MS analysis; type: ADME, Microsome
Chain of Cytochrome P450 2C19 (P33261 whole entry): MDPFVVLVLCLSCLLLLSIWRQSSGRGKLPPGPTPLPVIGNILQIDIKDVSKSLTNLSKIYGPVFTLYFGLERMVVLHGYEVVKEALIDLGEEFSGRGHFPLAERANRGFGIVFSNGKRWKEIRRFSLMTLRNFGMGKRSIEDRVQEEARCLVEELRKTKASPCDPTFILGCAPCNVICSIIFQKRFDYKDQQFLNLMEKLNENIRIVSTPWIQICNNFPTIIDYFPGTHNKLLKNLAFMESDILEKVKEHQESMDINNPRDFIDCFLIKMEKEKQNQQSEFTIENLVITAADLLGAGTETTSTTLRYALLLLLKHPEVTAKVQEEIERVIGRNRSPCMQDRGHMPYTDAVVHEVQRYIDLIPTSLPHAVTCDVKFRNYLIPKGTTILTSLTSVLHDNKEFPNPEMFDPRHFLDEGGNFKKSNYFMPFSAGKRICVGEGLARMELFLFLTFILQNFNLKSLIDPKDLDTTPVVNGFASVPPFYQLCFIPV

[12] = Plasma protein binding in dog assessed as unbound fraction at 1 uM incubated for 6 hrs by LC-MS/MS based rapid equlibrium dialysis method; type: ADME, cell-free, Canis lupus familiaris
HCT-116 [13] = assay: Antitumor activity against MTAP-knockout human HCT-116 cells xenografted in Nu/Nu mouse model assessed as tumor growth inhibition at 10 mg/kg, po qd measured after 21 days relative to control; type: functional; details: HCT-116, 504 h, time 21 day, read-out: TGI
Cytochrome P450 2D6 = Cytochrome P450 2D6 (Homo sapiens, UniProt P10635); assay: Inhibition of human liver microsomes CYP2D6 using Dextromethorphan as substrate incubated for 5 mins with compound followed by substrate and NADPH addition measured after 10 mins by LC-MS/MS analysis; type: ADME, Microsome
Chain of Cytochrome P450 2D6 (P10635 whole entry): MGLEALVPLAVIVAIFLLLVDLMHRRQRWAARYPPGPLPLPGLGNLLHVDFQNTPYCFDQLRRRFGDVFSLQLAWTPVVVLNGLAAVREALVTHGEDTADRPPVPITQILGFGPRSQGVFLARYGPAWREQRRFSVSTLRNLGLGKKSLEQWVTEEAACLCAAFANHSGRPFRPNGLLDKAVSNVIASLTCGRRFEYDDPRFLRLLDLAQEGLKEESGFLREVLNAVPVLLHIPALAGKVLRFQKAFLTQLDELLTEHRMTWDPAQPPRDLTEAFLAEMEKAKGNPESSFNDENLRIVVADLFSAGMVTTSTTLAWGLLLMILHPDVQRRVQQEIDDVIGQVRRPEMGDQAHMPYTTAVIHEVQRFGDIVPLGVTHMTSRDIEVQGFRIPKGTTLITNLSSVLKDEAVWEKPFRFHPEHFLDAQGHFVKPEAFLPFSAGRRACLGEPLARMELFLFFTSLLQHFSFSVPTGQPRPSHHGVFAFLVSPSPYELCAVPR

HCT-116 [14] = assay: Antitumor activity against MTAP-knockout human HCT-116 cells xenografted in Nu/Nu mouse model assessed as reduction in SAM concentration at 20 mg/kg, po qd administered for 21 days measured after 10 hrs post last dose relative to control; type: functional; set-up: scale not given: the % may be the effect or the level left; details: time 514 hrs
[15] = Half life in male Sprague-Dawley rat plasma at 10 mg/kg, po incubated for 24 hrs by LC-MS/MS analysis; type: ADME, organism-based
[16] = Half life in male Beagle dog at 3 mg/kg, po incubated for 24 hrs by LC-MS/MS analysis; type: ADME, organism-based, Canis lupus familiaris; details: in vivo
HCT-116 [17] = assay: Antitumor activity against MTAP-knockout human HCT-116 cells xenografted in Nu/Nu mouse model assessed as tumor growth inhibition at 20 mg/kg, po qd measured after 21 days relative to control; type: functional; details: HCT-116, 504 h, time 21 day, read-out: TGI
[18] = Plasma protein binding in human assessed as unbound fraction at 1 uM incubated for 6 hrs by LC-MS/MS based rapid equlibrium dialysis method relative to control; type: ADME, cell-free
[19] = AUClast in male Beagle dog at 3 mg/kg, po incubated for 24 hrs by LC-MS/MS analysis; type: ADME, organism-based, Canis lupus familiaris; set-up: dose 3 mg/kg, time 24 hrs, route po; details: in vivo
Cytochrome P450 3A4 = Cytochrome P450 3A4 (Homo sapiens, UniProt P08684); assay: Inhibition of human liver microsomes CYP3A4 using Midazolam as substrate incubated for 5 mins with compound followed by substrate and NADPH addition measured after 5 mins by LC-MS/MS analysis; type: ADME, Microsome
Chain of Cytochrome P450 3A4 (P08684 whole entry): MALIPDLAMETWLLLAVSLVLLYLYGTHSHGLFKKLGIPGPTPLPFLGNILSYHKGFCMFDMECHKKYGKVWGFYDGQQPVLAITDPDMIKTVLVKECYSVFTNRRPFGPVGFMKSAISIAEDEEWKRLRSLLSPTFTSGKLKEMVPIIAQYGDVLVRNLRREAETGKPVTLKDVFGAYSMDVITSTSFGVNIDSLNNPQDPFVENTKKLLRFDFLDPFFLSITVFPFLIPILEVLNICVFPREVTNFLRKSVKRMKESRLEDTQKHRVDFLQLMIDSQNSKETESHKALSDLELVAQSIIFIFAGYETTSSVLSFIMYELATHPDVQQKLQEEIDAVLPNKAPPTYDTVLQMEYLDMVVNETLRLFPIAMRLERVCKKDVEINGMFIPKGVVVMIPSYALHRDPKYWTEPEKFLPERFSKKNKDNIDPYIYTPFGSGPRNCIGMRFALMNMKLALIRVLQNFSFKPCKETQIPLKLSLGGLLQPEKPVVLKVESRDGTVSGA

[20] = Tmax in male Sprague-Dawley rat plasma at 10 mg/kg, po incubated for 24 hrs by LC-MS/MS analysis; type: ADME, organism-based
[21] = Cmax in male Beagle dog at 3 mg/kg, po incubated for 24 hrs by LC-MS/MS analysis; type: ADME, organism-based, Canis lupus familiaris; set-up: dose 3 mg/kg, time 24 hrs, route po; details: in vivo
[22] = Tmax in male Beagle dog at 3 mg/kg, po incubated for 24 hrs by LC-MS/MS analysis; type: ADME, organism-based, Canis lupus familiaris; details: in vivo
[23] = AUClast in ICR mouse plasma at 10 mg/kg, IG incubated for 24 hrs by LC-MS/MS analysis; type: ADME, organism-based; set-up: dose 10 mg/kg, time 24 hrs, route ig; details: po
[24] = Plasma protein binding in mouse assessed as unbound fraction at 1 uM incubated for 6 hrs by LC-MS/MS based rapid equlibrium dialysis method; type: ADME, cell-free

Compound: COc1ccc(-c2c(Nc3ccccn3)[nH]c3c(C4=CCCCC4)c(-c4ccccc4)nn3c2=O)cc1
- inhibition in vivo at 50 mg/kg (HCT-116 [1]): 43%

Compound: CNc1nc(=O)c(-c2ccccc2Cl)c2cc(C(F)F)ccn12
- IC50 [2]: 0.049 µM

Compound: O=c1nc(NC2CC2)n2ccc(C(F)(F)F)cc2c1-c1ccccc1F
- IC50 [2]: 0.12 µM

Compound: CNc1nc(=O)c(-c2cccc(Cl)c2)c2cc(C(F)(F)F)ccn12
- IC50 [2]: 0.107 µM

Compound: CNc1nc(=O)c(-c2cccc(C)c2)c2cc(C(F)(F)F)ccn12
- IC50 [2]: 0.06 µM

Compound: CNc1nc(=O)c(-c2ccccc2Cl)c2cc(C)ccn12
- IC50 [2]: 0.143 µM

Compound: O=C(C1CC1)N1CC(=O)N(c2ccccc2Cl)c2cc(C(F)(F)F)ccc21
- IC50 [2]: 2.55 µM

Compound: CC(C)Nc1nc(=O)c(-c2ccccc2F)c2cc(C(F)(F)F)ccn12
- IC50 [2]: 0.08 µM

Compound: O=c1nc(NC2CC2)n2ccc(C(F)(F)F)cc2c1-c1cccnc1F
- Tmax [3]: 0.67 h
- fraction unbound at 6 h, 1 µM [4]: 0.329
- IC50 (Cytochrome P450 2C9): > 10 µM
- CLint scaled [5]: 1.4 mL/min/kg
- Cmax [6]: 2820 ng/mL
- Activity [7]: 11%
- IC50 (HCT-116 [8]): 0.273 µM
- half-life [9]: 3.3 h
- Cmax [10]: 16200 ng/mL
- AUC(0-t) at 24 h [11]: 16200 ng·h/mL
- IC50 (Cytochrome P450 2C19): > 10 µM
- fraction unbound at 6 h, 1 µM [12]: 0.325
- inhibition in vivo at 10 mg/kg (HCT-116 [13]): 48%
- IC50 [2]: 0.04 µM
- IC50 (Cytochrome P450 2D6): > 10 µM
- Activity (HCT-116 [14]): 79%
- half-life [15]: 3 h
- half-life [16]: 2.6 h
- inhibition in vivo at 20 mg/kg (HCT-116 [17]): 60%
- fraction unbound at 6 h, 1 µM [18]: 0.216
- AUC(0-t) at 24 h [19]: 9310 ng·h/mL
- IC50 (Cytochrome P450 3A4): > 10 µM
- Tmax [20]: 3.3 h
- Cmax [21]: 1680 ng/mL
- Tmax [22]: 1.3 h
- AUC(0-t) at 24 h [23]: 34000 ng·h/mL
- fraction unbound at 6 h, 1 µM [24]: 0.091

Compound: CNc1nc(=O)c(-c2ccccc2F)c2cc(C(F)(F)F)ccn12
- IC50 [2]: 0.045 µM

Compound: CNc1nc(=O)c(-c2ccccc2Cl)c2cc(C(F)(F)F)cnn12
- IC50 [2]: > 10 µM

Compound: CNc1nc(=O)c(-c2cccc(F)c2)c2cc(C(F)(F)F)ccn12
- IC50 [2]: 0.042 µM

Compound: CNc1nc(=O)c(-c2ccccc2)c2cc(C(F)(F)F)ccn12
- IC50 [2]: 0.065 µM

Compound: CNc1nc(=O)c(-c2ccc(C)cc2)c2cc(C(F)(F)F)ccn12
- IC50 [2]: 0.347 µM

Compound: CNc1nc(=O)c(-c2ccccc2Cl)c2cc(C(F)(F)F)ccn12
- IC50 [2]: 0.049 µM

Compound: CNc1nc(=O)c(-c2c(F)cccc2F)c2cc(C(F)(F)F)ccn12
- IC50 [2]: 0.065 µM

Compound: CNc1nc(=O)n(-c2ccccc2Cl)c2cc(C(F)(F)F)sc12
- IC50 [2]: 0.268 µM

Compound: CNc1nc(=O)c(-c2ccccc2Cl)c2cc(C3CC3)ccn12
- IC50 [2]: 0.053 µM

Compound: CNc1nc(=O)c(-c2cccc(C#N)c2)c2cc(C(F)(F)F)ccn12
- IC50 [2]: 0.199 µM

Compound: O=c1nc(NC2CC2)n2ccc(C(F)(F)F)cc2c1-c1cccc(F)c1
- IC50 [2]: 0.046 µM

Compound: O=c1nc(NC2CCC2)n2ccc(C(F)(F)F)cc2c1-c1ccccc1F
- IC50 [2]: 0.121 µM

Compound: CNc1nc(=O)n(-c2ccccc2Cl)c2c1CCN(C)C2
- IC50 [2]: > 10 µM

Compound: O=c1nc(NCC(F)F)n2ccc(C(F)(F)F)cc2c1-c1ccccc1F
- IC50 [2]: 0.119 µM

Compound: CNc1cc(=O)n(-c2ccccc2Cl)c2nc(C(F)(F)F)ccc12
- IC50 [2]: 0.252 µM

Compound: O=c1nc(N2CCCC2)n2ccc(C(F)(F)F)cc2c1-c1ccccc1F
- IC50 [2]: 0.531 µM

Compound: O=c1nc(N[C@H]2C[C@H](O)C2)n2ccc(C(F)(F)F)cc2c1-c1ccccc1F
- IC50 [2]: 0.192 µM

Compound: O=c1nc(NC2CC2)n2ccc(C(F)(F)F)cc2c1-c1cccc(O)c1F
- Tmax [3]: 0.33 h
- half-life [9]: 7.7 h
- Cmax [10]: 3960 ng/mL
- IC50 [2]: 0.031 µM
- AUC(0-t) at 24 h [23]: 8880 ng·h/mL

Compound: CNc1nc(=O)c(-c2ccccc2C(C)C)c2cc(C(F)(F)F)ccn12
- IC50 [2]: 0.068 µM
